From ChEMBL document CHEMBL6120944, “SAR Analysis of Novel Coxsackie virus A9 Capsid Binders” (J Med Chem, 2024)
In brackets after ≈: the same amount, converted by molar mass. Activity calls are given as the source filed them. The calls are words filed in the database; no cut-off is given here.

Columns and labels:
Coxsackievirus A9 [1] = assay: Antiviral activity against Coxsackievirus A9 infected in human A549 cells assessed as inhibition of virus-induced cytopathic effect pre-infected with virus for 1 hr followed by compound addition and measured after 24 hrs by crystal violet staining based analysis; assay type: functional, organism-based; details: Enterovirus B
Coxsackievirus A9 [2] = assay: Antiviral activity against Coxsackievirus A9 infected in human A549 cells assessed as increase in cell viability at 10 uM pre-infected with virus for 1 hr followed by compound addition and measured after 24 hrs by crystal violet staining based analysis; assay type: functional, organism-based
[3] = Kinetic solubility of compound by HPLC analysis; assay type: physicochemical; details: read-out: Kinetic_solubility
[4] = Selectivity index, ratio of CC50 for cytotoxicity against human A549 cells assessed as cell viability to EC50 for antiviral activity against Coxsackievirus A9 infected in human A549 cells assessed as inhibition of virus-induced cytopathic effect; assay type: toxicity, cell-based; details: read-out: Ratio CC50/EC50
[5] = Cytotoxicity against human A549 cells assessed as cell viability; assay type: toxicity, cell-based
Coxsackievirus A9 [6] = assay: Antiviral activity against Coxsackievirus A9 infected in human A549 cells assessed as increase in cell viability at 100 uM pre-infected with virus for 1 hr followed by compound addition and measured after 24 hrs by crystal violet staining based analysis relative to control; assay type: functional
[7] = Distribution coefficient, log D of the compound by HPLC analysis; assay type: physicochemical; details: octanol/water
[8] = Metabolic stability in CD-1 mouse liver microsome assessed as half life preincubated with compound for 10 mins followed by NADP addition and measured after 60 mins by LC-MS/MS analysis; assay type: ADME; details: liver microsomes, time 70 min
[9] = Metabolic stability in human liver microsome assessed as half life preincubated with compound for 10 mins followed by NADP addition and measured after 60 mins by LC-MS/MS analysis; assay type: ADME; details: liver microsomes, time 70 min
[10] = Metabolic stability in human liver microsome assessed as intrinsic clearance preincubated with compound for 10 mins followed by NADP addition and measured after 60 mins by LC-MS/MS analysis; assay type: ADME; details: liver microsomes, time 70 min, read-out: CLH
[11] = Metabolic stability in CD-1 mouse liver microsome assessed as intrinsic clearance preincubated with compound for 10 mins followed by NADP addition and measured after 60 mins by LC-MS/MS analysis; assay type: ADME; details: liver microsomes, time 70 min, read-out: CLH
Coxsackievirus A9 [12] = assay: Antiviral activity against Coxsackievirus A9 infected in human A549 cells assessed as inhibition of virus-induced cytopathic effect at 5 uM pre-infected with virus for 1 hr followed by compound addition and measured after 24 hrs by crystal violet staining based analysis relative to control; assay type: functional; set-up: scale not given: the % may be the effect or the level left
Coxsackievirus A9 [13] = assay: Antiviral activity against Coxsackievirus A9 infected in human A549 cells assessed as increase in cell viability at 5 uM pre-infected with virus for 1 hr followed by compound addition and measured after 24 hrs by crystal violet staining based analysis relative to control; assay type: functional

CN1CCN(Cc2ccc(NCc3ccccc3F)cc2)CC1
EC50 (Coxsackievirus A9 [1]): 6.66 µM
Activity (Coxsackievirus A9 [2]): Active
solubility kinetic [3]: 260 µg/mL (≈ 830 µM)
selectivity ratio [4]: 52.8
CC50 [5]: 351 µM
Activity (Coxsackievirus A9 [6]): ~70%
logD [7]: 2.05

CN1CCN(Cc2ccc(NC(=O)c3ccc(Cl)cc3)cc2)CC1
EC50 (Coxsackievirus A9 [1]): 7.98 µM
solubility kinetic [3]: 220 µg/mL (≈ 640 µM)
selectivity ratio [4]: > 125
CC50 [5]: > 1000 µM
logD [7]: 2.27

CN1CCN(Cc2ccc(NCc3cccc(F)c3)cc2)CC1
EC50 (Coxsackievirus A9 [1]): 5.84 µM
Activity (Coxsackievirus A9 [2]): Active
solubility kinetic [3]: 220 µg/mL (≈ 702 µM)
selectivity ratio [4]: 38
CC50 [5]: 222 µM
Activity (Coxsackievirus A9 [6]): ~70%
logD [7]: 1.93

COc1ccccc1CNc1ccc(CN2CCN(C)CC2)cc1
EC50 (Coxsackievirus A9 [1]): 7.84 µM
Activity (Coxsackievirus A9 [2]): Active
selectivity ratio [4]: 45.9
CC50 [5]: 360 µM
Activity (Coxsackievirus A9 [6]): 40%

CN1CCN(Cc2ccc(NC(=O)c3ccc(-c4ccccc4)cc3)cc2)CC1
EC50 (Coxsackievirus A9 [1]): 1.07 µM
solubility kinetic [3]: 260 µg/mL (≈ 674 µM)
selectivity ratio [4]: 134
CC50 [5]: 144 µM

CN1CCN(Cc2ccc(NCc3ccc(C(F)(F)F)cc3)cc2)CC1
EC50 (Coxsackievirus A9 [1]): 1.06 µM
Activity (Coxsackievirus A9 [2]): Active
half-life [8]: 12.8 min
half-life [9]: 33.7 min
microsomal CLint [10]: 41.2 µL/min/mg
solubility kinetic [3]: 210 µg/mL (≈ 578 µM)
selectivity ratio [4]: 74.1
CC50 [5]: 78.6 µM
microsomal CLint [11]: 108 µL/min/mg
Activity (Coxsackievirus A9 [6]): ~60%

CN1CCN(Cc2ccc(NCc3ccc(F)cc3)cc2)CC1
EC50 (Coxsackievirus A9 [1]): 2.34 µM
Activity (Coxsackievirus A9 [2]): Active
solubility kinetic [3]: 200 µg/mL (≈ 638 µM)
selectivity ratio [4]: 155
CC50 [5]: 364 µM
Activity (Coxsackievirus A9 [6]): ~70%
logD [7]: 1.94

COc1ccc(CNc2ccc(CN3CCN(C)CC3)cc2)cc1
EC50 (Coxsackievirus A9 [1]): 10.5 µM
Activity (Coxsackievirus A9 [2]): Active
solubility kinetic [3]: 210 µg/mL (≈ 645 µM)
selectivity ratio [4]: 36
CC50 [5]: 376 µM
Activity (Coxsackievirus A9 [6]): 60%
logD [7]: 1.81

CN1CCN(Cc2ccc(NCc3ccc(Cl)cc3)cc2)CC1
EC50 (Coxsackievirus A9 [1]): 1.27 µM
Activity (Coxsackievirus A9 [2]): Active
half-life [8]: 7 min
half-life [9]: 20.9 min
microsomal CLint [10]: 66.4 µL/min/mg
Activity (Coxsackievirus A9 [12]): 100%
solubility kinetic [3]: 220 µg/mL (≈ 667 µM)
Activity (Coxsackievirus A9 [13]): 90%
selectivity ratio [4]: 90.1
CC50 [5]: 114 µM
microsomal CLint [11]: 199 µL/min/mg
logD [7]: 2.34

CN1CCN(Cc2ccc(NCc3ccc(F)c(F)c3)cc2)CC1
EC50 (Coxsackievirus A9 [1]): 4.11 µM
Activity (Coxsackievirus A9 [2]): Active
solubility kinetic [3]: 220 µg/mL (≈ 664 µM)
selectivity ratio [4]: 52.2
CC50 [5]: 215 µM
Activity (Coxsackievirus A9 [6]): ~70%
logD [7]: 1.98

CN1CCN(Cc2ccc(NCc3ccc(F)cc3F)cc2)CC1
EC50 (Coxsackievirus A9 [1]): 6.8 µM
Activity (Coxsackievirus A9 [2]): Active
solubility kinetic [3]: 240 µg/mL (≈ 724 µM)
selectivity ratio [4]: 29.5
CC50 [5]: 201 µM
Activity (Coxsackievirus A9 [6]): ~70%
logD [7]: 1.9

CN1CCN(Cc2ccc(NCc3ccc(-c4ccccc4)cc3)cc2)CC1
EC50 (Coxsackievirus A9 [1]): 0.64 µM
Activity (Coxsackievirus A9 [2]): Active
Activity (Coxsackievirus A9 [12]): 100%
solubility kinetic [3]: 210 µg/mL (≈ 565 µM)
Activity (Coxsackievirus A9 [13]): 60%
selectivity ratio [4]: 24.7
CC50 [5]: 15.8 µM
